Values after ≈ are worked out from the molar mass of the structure shown. Like-named read-outs stand apart in the source and are kept apart here.
What was measured:
Assay type in all cases: cell-based
E. coli 102 = assay: MIC against E. coli 102; settings: Table 2, E. coli 102, TEM-1
Text: (§1) Without limitation, the present cephem compounds alone, or in combination with one or more β-lactamase inhibitors, may provide improved antibacterial efficacy, particularly in antibiotic-resistant bacterial strains. It is believed that the present compounds may be structurally different from known compounds and, as a result, may be more basic in nature. It is an advantage that the present compounds may extend the spectrum of effective bacterial compounds, particularly against previously-resistant bacteria (e.g. ESKAPE organisms), and/or gram negative bacteria, without significant side effects. In a preferred embodiment, the present cephem compound may comprise reference compound ceftazidime, which may be used alone, or in combination with one or more β-lactamase inhibitors, such as NXL-104. As shown, the foregoing composition was tested for minimum inhibitory concentration (MIC, μg/mL) against bacteria listed in Tables 2-3.

P. aeruginosa 2573 = assay: MIC against P. aeruginosa 2573; settings: Table 2, P. aeruginosa 2573, OXA-10 (Class D)
Text: as §1

C. freundii 579 = assay: MIC against C. freundii 579; settings: Table 2, C. freundii 579, Caz R, IMP S
Text: as §1

S. pneumoniae ATCC 6301 = assay: MIC against S. pneumoniae ATCC 6301; settings: Table 2, S. pneumoniae ATCC 6301, Pen S
Text: as §1

E. coli 4103 = assay: MIC against E. coli 4103; settings: Table 3, E. coli 4103, KPC-2, TEM-1, CMY-type
Experimental: (§2) As shown, the foregoing composition was tested for minimum inhibitory concentration (MIC, μg/mL) against bacteria listed in Tables 2-3.

S. pneumoniae 2406 = assay: MIC against S. pneumoniae 2406; settings: Table 2, S. pneumoniae 2406, Pen S
Text: as §1

C. freundii 15 = assay: MIC against C. freundii 15; settings: Table 2, C. freundii 15, Caz R, IMP S
Text: as §1

S. pneumoniae 2405 = assay: MIC against S. pneumoniae 2405; settings: Table 2, S. pneumoniae 2405, Pen S
Text: as §1

E. coli 2668 = assay: MIC against E. coli 2668; settings: Table 2, E. coli 2668, OXA-48
Text: as §1

K. pneumoniae 4106 = assay: MIC against K. pneumoniae 4106; settings: K. pneumoniae 4106, KPC-3, TEM-1, SHV-12, SHV-141
Experimental: as §2

K. pneumoniae 4109 = assay: MIC against K. pneumoniae 4109; settings: Table 2, K. pneumoniae 4109, SHV-1, SHV-12
Text: as §1

E. cloacae 552 = assay: MIC against E. cloacae 552; settings: Table 2, E. cloacae 552, Caz S, IMP S
Text: as §1

S. pneumoniae 2492 = assay: MIC against S. pneumoniae 2492; settings: Table 2, S. pneumoniae 2492, Pen R
Text: as §1

K. pneumoniae 2697 = assay: MIC against K. pneumoniae 2697; settings: Table 2, K. pneumoniae 2697, IMP-4
Text: as §1

S. pneumoniae 2389 = assay: MIC against S. pneumoniae 2389; settings: Table 2, S. pneumoniae 2389, Pen R
Text: as §1

K. baumanii 4095 = assay: MIC against K. baumanii 4095; settings: Table 2, K. baumanii 4095, OXA-48
Text: as §1

S. pneumoniae 2404 = assay: MIC against S. pneumoniae 2404; settings: Table 2, S. pneumoniae 2404, Pen S
Text: as §1

S. pneumoniae 2493 = assay: MIC against S. pneumoniae 2493; settings: Table 2, S. pneumoniae 2493, Pen R
Text: as §1

[1] = system: S. pneumoniae ATCC 700673; assay: MIC against S. pneumoniae ATCC 700673; settings: Table 2, S. pneumoniae ATCC 700673, Pen R
Text: as §1

E. cloacae 551 = assay: MIC against E. cloacae 551; settings: Table 2, E. cloacae 551, Caz R, IMP S
Text: as §1

K. pneumoniae 4108 = assay: MIC against K. pneumoniae 4108; settings: K. pneumoniae 4108, KPC-3, TEM-166, SHV-12, SHV-141
Experimental: as §2

K. pneumoniae 2689 = assay: MIC against K. pneumoniae 2689; settings: K. pneumoniae 2689, KPC-2
Experimental: as §2

[2] = Escherichia coli, alone, read-out: MIC
[3] = Pseudomonas aeruginosa, alone, read-out: MIC
[4] = Citrobacter freundii, alone, read-out: MIC
[5] = Streptococcus pneumoniae, ATCC6301, alone, read-out: MIC
[6] = Streptococcus pneumoniae, alone, read-out: MIC
[7] = Klebsiella pneumoniae, 4106, Table 2, alone, read-out: MIC
[8] = Klebsiella pneumoniae, 4106, Table 3, alone, read-out: MIC
[9] = Table 2, in combination with NXL-104
[10] = Table 3, in combination with NXL-104
[11] = Klebsiella pneumoniae, alone, read-out: MIC
[12] = Enterobacter cloacae, alone, read-out: MIC
[13] = Streptococcus pneumoniae, ATCC700673, alone, read-out: MIC
[14] = Klebsiella pneumoniae, 4108, Table 2, alone, read-out: MIC
[15] = Klebsiella pneumoniae, 4108, Table 3, alone, read-out: MIC
[16] = Klebsiella pneumoniae, 2689, Table 2, alone, read-out: MIC
[17] = Klebsiella pneumoniae, 2689, Table 3, alone, read-out: MIC

CC(C)(O/N=C(\C(=O)N[C@@H]1C(=O)N2C(C(=O)[O-])=C(C[n+]3ccc4n3CCN4Cc3ccc(C(=N)N)cc3)CS[C@H]12)c1csc(N)n1)C(=O)O [Example 2, (6R,7R)-7-{[(2Z)-2-(2-Amino-1,3-thiazol-4-yl)-2-{[(2-carboxypropan-2-yl)oxy]imino}acetyl]amino}-3-{[1-(4-carbamimidoylbenzyl)-2,3-dihydro-1H-imidazo[1,2-b]pyrazol-5-ium-5-yl]methyl}-8-oxo-5-thia-1-azabicyclo[4.2.0]oct-2-ene-2-carboxylate]
MIC (E. coli 102; [2]): ≤ 0.06 µg/mL | MIC (E. coli 102; in combination with NXL-104): ≤0.06 µg/mL | MIC (P. aeruginosa 2573; [3]): 2 µg/mL | MIC (P. aeruginosa 2573; in combination with NXL-104): 4.00 µg/mL | MIC (C. freundii 579; [4]): 2 µg/mL | MIC (C. freundii 579; in combination with NXL-104): 0.50 µg/mL | MIC (S. pneumoniae ATCC 6301; [5]): ≤ 0.06 µg/mL | MIC (S. pneumoniae ATCC 6301; in combination with NXL-104): ≤0.06 µg/mL | MIC (E. coli 4103; [2]): > 32 µg/mL | MIC (E. coli 4103; in combination with NXL-104): 8 µg/mL | MIC (S. pneumoniae 2406; [6]): ≤ 0.06 µg/mL | MIC (S. pneumoniae 2406; in combination with NXL-104): ≤0.06 µg/mL | MIC (C. freundii 15; [4]): 4 µg/mL | MIC (C. freundii 15; in combination with NXL-104): 0.50 µg/mL | MIC (S. pneumoniae 2405; [6]): 0.12 µg/mL | MIC (S. pneumoniae 2405; in combination with NXL-104): ≤0.06 µg/mL | MIC (E. coli 2668; [2]): 0.5 µg/mL | MIC (E. coli 2668; in combination with NXL-104): 0.25 µg/mL | MIC (K. pneumoniae 4106; [7]): 8 µg/mL (≈ 11.3 µM) | MIC (K. pneumoniae 4106; [8]): > 32 µg/mL | MIC (K. pneumoniae 4106; [9]): 2.00 µg/mL | MIC (K. pneumoniae 4106; [10]): 4 µg/mL | MIC (K. pneumoniae 4109; [11]): 0.5 µg/mL | MIC (K. pneumoniae 4109; in combination with NXL-104): 0.12 µg/mL | MIC (E. cloacae 552; [12]): 0.12 µg/mL | MIC (E. cloacae 552; in combination with NXL-104): 0.12 µg/mL | MIC (S. pneumoniae 2492; [6]): 8 µg/mL | MIC (S. pneumoniae 2492; in combination with NXL-104): 8.00 µg/mL | MIC (K. pneumoniae 2697; [11]): 4 µg/mL | MIC (K. pneumoniae 2697; in combination with NXL-104): 1.00 µg/mL | MIC (S. pneumoniae 2389; [6]): 8 µg/mL | MIC (S. pneumoniae 2389; in combination with NXL-104): 8.00 µg/mL | MIC (K. baumanii 4095; alone, read-out: MIC): 0.25 µg/mL | MIC (K. baumanii 4095; in combination with NXL-104): 0.25 µg/mL | MIC (S. pneumoniae 2404; [6]): 0.25 µg/mL | MIC (S. pneumoniae 2404; in combination with NXL-104): 0.25 µg/mL | MIC (S. pneumoniae 2493; [6]): 8 µg/mL | MIC (S. pneumoniae 2493; in combination with NXL-104): 8.00 µg/mL | MIC [1, 13]: 8 µg/mL | MIC ([1]; in combination with NXL-104): 8.00 µg/mL | MIC (E. cloacae 551; [12]): 8 µg/mL | MIC (E. cloacae 551; in combination with NXL-104): 1.00 µg/mL | MIC (K. pneumoniae 4108; [14]): 4 µg/mL (≈ 5.64 µM) | MIC (K. pneumoniae 4108; [15]): > 32 µg/mL | MIC (K. pneumoniae 4108; [9]): 1.00 µg/mL | MIC (K. pneumoniae 4108; [10]): 2 µg/mL | MIC (K. pneumoniae 2689; [16]): 8 µg/mL (≈ 11.3 µM) | MIC (K. pneumoniae 2689; [17]): 32 µg/mL (≈ 45.1 µM) | MIC (K. pneumoniae 2689; [9]): 2.00 µg/mL | MIC (K. pneumoniae 2689; [10]): 2 µg/mL

CC(C)(O/N=C(\C(=O)N[C@@H]1C(=O)N2C(C(=O)[O-])=C(C[n+]3ccc4c(ccn4Cc4cc(C(=N)N)cs4)c3)CS[C@H]12)c1csc(N)n1)C(=O)O [Example 5, (6R,7R)-7-{[(2Z)-2-(2-Amino-1,3-thiazol-4-yl)-2-{[(2-carboxypropan-2-yl)oxy]imino}acetyl]amino}-3-({1-[(4-carbamimidoylthiophen-2-yl)methyl]-1H-pyrrolo[3,2-c]pyridin-5-ium-5-yl}methyl)-8-oxo-5-thia-1-azabicyclo[4.2.0]oct-2-ene-2-carboxylate]
MIC (E. coli 102; [2]): ≤ 0.06 µg/mL | MIC (E. coli 102; in combination with NXL-104): ≤0.06 µg/mL | MIC (P. aeruginosa 2573; [3]): 4 µg/mL | MIC (P. aeruginosa 2573; in combination with NXL-104): 4.00 µg/mL | MIC (C. freundii 579; [4]): 4 µg/mL | MIC (C. freundii 579; in combination with NXL-104): 0.25 µg/mL | MIC (S. pneumoniae ATCC 6301; [5]): ≤ 0.06 µg/mL | MIC (S. pneumoniae ATCC 6301; in combination with NXL-104): ≤0.06 µg/mL | MIC (E. coli 4103; [2]): > 32 µg/mL | MIC (E. coli 4103; in combination with NXL-104): 4 µg/mL | MIC (S. pneumoniae 2406; [6]): ≤ 0.06 µg/mL | MIC (S. pneumoniae 2406; in combination with NXL-104): ≤0.06 µg/mL | MIC (C. freundii 15; [4]): 16 µg/mL | MIC (C. freundii 15; in combination with NXL-104): 0.50 µg/mL | MIC (S. pneumoniae 2405; [6]): ≤ 0.06 µg/mL | MIC (S. pneumoniae 2405; in combination with NXL-104): ≤0.06 µg/mL | MIC (E. coli 2668; [2]): 1 µg/mL | MIC (E. coli 2668; in combination with NXL-104): ≤0.06 µg/mL | MIC (K. pneumoniae 4106; [7]): 16 µg/mL (≈ 22.1 µM) | MIC (K. pneumoniae 4106; [8]): 32 µg/mL (≈ 44.2 µM) | MIC (K. pneumoniae 4106; [9]): 1.00 µg/mL | MIC (K. pneumoniae 4106; [10]): 2 µg/mL | MIC (K. pneumoniae 4109; [11]): 8 µg/mL | MIC (K. pneumoniae 4109; in combination with NXL-104): 0.12 µg/mL | MIC (E. cloacae 552; [12]): 0.12 µg/mL | MIC (E. cloacae 552; in combination with NXL-104): ≤0.06 µg/mL | MIC (S. pneumoniae 2492; [6]): 2 µg/mL | MIC (S. pneumoniae 2492; in combination with NXL-104): 2.00 µg/mL | MIC (K. pneumoniae 2697; [11]): 16 µg/mL | MIC (K. pneumoniae 2697; in combination with NXL-104): 0.50 µg/mL | MIC (S. pneumoniae 2389; [6]): 2 µg/mL | MIC (S. pneumoniae 2389; in combination with NXL-104): 1.00 µg/mL | MIC (K. baumanii 4095; alone, read-out: MIC): 0.25 µg/mL | MIC (K. baumanii 4095; in combination with NXL-104): 0.25 µg/mL | MIC (S. pneumoniae 2404; [6]): ≤ 0.06 µg/mL | MIC (S. pneumoniae 2404; in combination with NXL-104): ≤0.06 µg/mL | MIC (S. pneumoniae 2493; [6]): 2 µg/mL | MIC (S. pneumoniae 2493; in combination with NXL-104): 2.00 µg/mL | MIC [1, 13]: 2 µg/mL | MIC ([1]; in combination with NXL-104): 2.00 µg/mL | MIC (E. cloacae 551; [12]): 32 µg/mL | MIC (E. cloacae 551; in combination with NXL-104): 1.00 µg/mL | MIC (K. pneumoniae 4108; [14]): 8 µg/mL (≈ 11.1 µM) | MIC (K. pneumoniae 4108; [15]): 32 µg/mL (≈ 44.2 µM) | MIC (K. pneumoniae 4108; [9]): 0.50 µg/mL | MIC (K. pneumoniae 4108; [10]): 1 µg/mL | MIC (K. pneumoniae 2689; [16]): 8 µg/mL (≈ 11.1 µM) | MIC (K. pneumoniae 2689; [17]): 8 µg/mL (≈ 11.1 µM) | MIC (K. pneumoniae 2689; [9]): 1.00 µg/mL | MIC (K. pneumoniae 2689; [10]): 1 µg/mL

— patent publication USRE48097E1, “Cephem compounds, their production and use” (priority 2015, dated 2020)
